Target: Carbonic anhydrase 7 (Homo sapiens, UniProt P43166)
Experiment: Inhibition of human recombinant CAH7

Sequence of Carbonic anhydrase 7 (P43166 whole entry): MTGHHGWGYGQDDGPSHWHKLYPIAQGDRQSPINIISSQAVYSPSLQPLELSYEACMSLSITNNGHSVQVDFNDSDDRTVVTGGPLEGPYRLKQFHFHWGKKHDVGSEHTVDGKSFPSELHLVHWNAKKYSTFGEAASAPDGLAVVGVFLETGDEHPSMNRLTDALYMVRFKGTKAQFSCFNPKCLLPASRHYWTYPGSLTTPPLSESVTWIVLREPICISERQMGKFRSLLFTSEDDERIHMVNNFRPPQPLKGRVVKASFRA

Ki: 6.4 nM
Compound: COc1cc2c(cc1OC)C(C)N(S(N)(=O)=O)CC2 (stereo unspecified)

— ChEMBL document CHEMBL1765058, “Structural basis for the interaction between carbonic anhydrase and 1,2,3,4-tetrahydroisoquinolin-2-ylsulfonamides” (J Med Chem, 2011)
